From patent publication US9321758B2, “Amorphous salt of a macrocyclic inhibitor of HCV” (Janssen Pharmaceuticals, Inc., priority 2009, dated 2016)

What was measured:
[1] = Water solubility; assay type: physicochemical
[2] = Clinical investigations, tolerability in patients; assay type: in vivo
[3] = Adsorption-Desorption (DVS), dynamic vapor sorption; assay type: physicochemical; details: for water adsorbed: at high relative humidity
Description: Amorphous TMC435 (19 mg) was transferred into a SMS (Surface Measurement Systems Ltd.) dynamic vapor sorption model DVS-1 and the weight change was recorded with respect to the atmospheric humidity at 25° C.

[4] = Long-term storage stability of the amorphous form by powder XRD; assay type: physicochemical; details: stored during 1 year, 8 months and 23 days
Description: This means that the amorphous Na salt of TMC435 allows stable storage during a normal shelf life period. X-ray powder diffraction (XRPD) analysis was carried out on a Philips X′PertPRO MPD diffractometer PW3050/60 with generator PW3040. The instrument was equipped with a Cu LFF X-ray tube PW3373/10. The compound was spread on a zero background sample holder.

Compound	water solubility [1]	tolerability in patients [2]	moisture remaining on the product during the desorption cycle ([3]; DVS desorption cycle, 25° C.)	weight loss during the initial drying step ([3]; DVS, drying 60 min under dry nitrogen, 25° C.)	water adsorbed ([3]; 25° C.)	water adsorbed ([3]; 25° C., listed as sodium salt of compound I)	stability when water is absorbed ([3]; brought into contact with humidity)	hygroscopicity ([3]; listed as Amorphous Sodium Salt Prepared According to Example 1)	hygroscopicity ([3]; listed as sodium salt of compound I)	solid form after DVS (IR and XRD) ([3]; product obtained after DVS)	powder XRD pattern after storage compared with pattern shortly after preparation [4]
COc1ccc2c(O[C@@H]3C[C@H]4C(=O)N[C@]5(C(=O)NS(=O)(=O)C6CC6)C[C@H]5/C=C\CCCCN(C)C(=O)[C@@H]4C3)cc(-c3nc(C(C)C)cs3)nc2c1C [TMC435, (1R,4R,6S,15R,17R)-cis-N-[17-[2-(4-isopropylthiazol-2-yl)-7-methoxy-8-methyl-quinolin-4-yloxy]-13-methyl-2,14-dioxo-3,13-diazatricyclo[13.3.0.0^4,6]octadec-7-ene-4-carbonyl] (cyclopropyl)sulfonamide]	poorly water-soluble	well-tolerated	–	–	–	–	–	–	–	–	–
COc1ccc2c(O[C@@H]3C[C@H]4C(=O)N[C@]5(C(=O)[N-]S(=O)(=O)C6CC6)C[C@H]5/C=C\CCCCN(C)C(=O)[C@@H]4C3)cc(-c3nc(C(C)C)cs3)nc2c1C.[Na+] [amorphous sodium salt of TMC435]	–	–	1.61%	2.03%	up to 13%	up to 13.1%	remains stable	Hygroscopic	hygroscopic	remained amorphous	remained essentially unchanged
